US10206394B2, “Herbicidal compounds” (Syngenta Participations AG, priority 2014, dated 2019)
Like-named read-outs stand apart in the source and are kept apart here.

Columns and labels:
Test in all cases: Glasshouse assay for herbicidal activity (pre- and post-emergence), percentage phytotoxicity
Format in all cases: in vivo
[1] = test system: Alopecurus myosuroides (ALOMY); settings: Alopecurus myosuroides
Summary of the method: (§1)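 Seeds were sown in standard soil in pots and grown one day (pre-emergence) or about 12 days (post-emergence) before herbicide application. Plants were kept at 24/18 °C (warm-climate) or 20/16 °C (cool-climate) day/night, 16 h light, 65% humidity, watered twice daily, and damage was scored visually at 15 DAA (POST) or 20 DAA (PRE).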

[2] = test system: Avena fatua (AVEFA); settings: Avena fatua
Summary of the method: as §1

[3] = test system: Echinochloa crus-galli (ECHCG); settings: Echinochloa crus-galli
Summary of the method: as §1

[4] = test system: Lolium perenne (LOLPE); settings: Lolium perenne
Summary of the method: as §1

[5] = post-emergence, 360 h, POST-emergence, rate 250 g/ha, visual score 15 DAA (100%=total damage, 0%=no damage), read-out: Post-emergence herbicidal activity (percentage phytotoxicity) ALOMY POST
[6] = pre-emergence, 480 h, PRE-emergence, rate 250 g/ha, visual score 20 DAA (100%=total damage, 0%=no damage), read-out: Pre-emergence herbicidal activity (percentage phytotoxicity) ALOMY PRE
[7] = post-emergence, 360 h, POST-emergence, rate 250 g/ha, visual score 15 DAA (100%=total damage, 0%=no damage), read-out: Post-emergence herbicidal activity (percentage phytotoxicity) AVEFA POST
[8] = pre-emergence, 480 h, PRE-emergence, rate 250 g/ha, visual score 20 DAA (100%=total damage, 0%=no damage), read-out: Pre-emergence herbicidal activity (percentage phytotoxicity) AVEFA PRE
[9] = post-emergence, 360 h, POST-emergence, rate 250 g/ha, visual score 15 DAA (100%=total damage, 0%=no damage), read-out: Post-emergence herbicidal activity (percentage phytotoxicity) ECHCG POST
[10] = pre-emergence, 480 h, PRE-emergence, rate 250 g/ha, visual score 20 DAA (100%=total damage, 0%=no damage), read-out: Pre-emergence herbicidal activity (percentage phytotoxicity) ECHCG PRE
[11] = post-emergence, 360 h, POST-emergence, rate 250 g/ha, visual score 15 DAA (100%=total damage, 0%=no damage), read-out: Post-emergence herbicidal activity (percentage phytotoxicity) LOLPE POST
[12] = pre-emergence, 480 h, PRE-emergence, rate 250 g/ha, visual score 20 DAA (100%=total damage, 0%=no damage), read-out: Pre-emergence herbicidal activity (percentage phytotoxicity) LOLPE PRE
[13] = post-emergence, 360 h, Rate 250 g/ha, post-emergence, visual assessment 15 DAA, 100%=total damage, 0%=no damage, read-out: Post-emergence herbicidal activity (percentage phytotoxicity) ALOMY POST
[14] = pre-emergence, 480 h, Rate 250 g/ha, pre-emergence, visual assessment 20 DAA, 100%=total damage, 0%=no damage, read-out: Pre-emergence herbicidal activity (percentage phytotoxicity) ALOMY PRE
[15] = post-emergence, 360 h, Rate 250 g/ha, post-emergence, visual assessment 15 DAA, 100%=total damage, 0%=no damage, read-out: Post-emergence herbicidal activity (percentage phytotoxicity) AVEFA POST
[16] = pre-emergence, 480 h, Rate 250 g/ha, pre-emergence, visual assessment 20 DAA, 100%=total damage, 0%=no damage, read-out: Pre-emergence herbicidal activity (percentage phytotoxicity) AVEFA PRE
[17] = post-emergence, 360 h, Rate 250 g/ha, post-emergence, visual assessment 15 DAA, 100%=total damage, 0%=no damage, read-out: Post-emergence herbicidal activity (percentage phytotoxicity) ECHCG POST
[18] = pre-emergence, 480 h, Rate 250 g/ha, pre-emergence, visual assessment 20 DAA, 100%=total damage, 0%=no damage, read-out: Pre-emergence herbicidal activity (percentage phytotoxicity) ECHCG PRE
[19] = post-emergence, 360 h, Rate 250 g/ha, post-emergence, visual assessment 15 DAA, 100%=total damage, 0%=no damage, read-out: Post-emergence herbicidal activity (percentage phytotoxicity) LOLPE POST
[20] = pre-emergence, 480 h, Rate 250 g/ha, pre-emergence, visual assessment 20 DAA, 100%=total damage, 0%=no damage, read-out: Pre-emergence herbicidal activity (percentage phytotoxicity) LOLPE PRE
[21] = post-emergence, 360 h, 250 g/ha, post-emergence, 15 DAA, visual assessment (100%=total damage, 0%=no damage), read-out: Post-emergence herbicidal activity (percentage phytotoxicity) ALOMY POST
[22] = pre-emergence, 480 h, 250 g/ha, pre-emergence, 20 DAA, visual assessment (100%=total damage, 0%=no damage), read-out: Pre-emergence herbicidal activity (percentage phytotoxicity) ALOMY PRE
[23] = post-emergence, 360 h, 250 g/ha, post-emergence, 15 DAA, visual assessment (100%=total damage, 0%=no damage), read-out: Post-emergence herbicidal activity (percentage phytotoxicity) AVEFA POST
[24] = pre-emergence, 480 h, 250 g/ha, pre-emergence, 20 DAA, visual assessment (100%=total damage, 0%=no damage), read-out: Pre-emergence herbicidal activity (percentage phytotoxicity) AVEFA PRE
[25] = post-emergence, 360 h, 250 g/ha, post-emergence, 15 DAA, visual assessment (100%=total damage, 0%=no damage), read-out: Post-emergence herbicidal activity (percentage phytotoxicity) ECHCG POST
[26] = pre-emergence, 480 h, 250 g/ha, pre-emergence, 20 DAA, visual assessment (100%=total damage, 0%=no damage), read-out: Pre-emergence herbicidal activity (percentage phytotoxicity) ECHCG PRE
[27] = post-emergence, 360 h, 250 g/ha, post-emergence, 15 DAA, visual assessment (100%=total damage, 0%=no damage), read-out: Post-emergence herbicidal activity (percentage phytotoxicity) LOLPE POST
[28] = pre-emergence, 480 h, 250 g/ha, pre-emergence, 20 DAA, visual assessment (100%=total damage, 0%=no damage), read-out: Pre-emergence herbicidal activity (percentage phytotoxicity) LOLPE PRE

SMILES | pest or weed control at 250 g/ha [1, 5] [%] | pest or weed control at 250 g/ha [1, 6] [%] | pest or weed control at 250 g/ha [2, 7] [%] | pest or weed control at 250 g/ha [2, 8] [%] | pest or weed control at 250 g/ha [3, 9] [%] | pest or weed control at 250 g/ha [3, 10] [%] | pest or weed control at 250 g/ha [4, 11] [%] | pest or weed control at 250 g/ha [4, 12] [%] | pest or weed control at 250 g/ha [1, 21] [%] | pest or weed control at 250 g/ha [1, 22] [%] | pest or weed control at 250 g/ha [2, 23] [%] | pest or weed control at 250 g/ha [2, 24] [%] | pest or weed control at 250 g/ha [3, 25] [%] | pest or weed control at 250 g/ha [3, 26] [%] | pest or weed control at 250 g/ha [4, 27] [%] | pest or weed control at 250 g/ha [4, 28] [%] | also measured
Cc1cc(-c2ncc(F)cn2)cc(C)c1C1C(=O)CC(CC(=O)NC2CC2(F)F)C1=O (stereo not drawn) [Compound B292] | 100 | 100 | 100 | 90 | 100 | 100 | 90 | 70 | – | – | – | – | – | – | – | – | –
Cc1cc(-c2ncc(Cl)cc2F)cc(C)c1C1C(=O)CC(CC(=O)NCc2ncccc2Cl)C1=O (stereo not drawn) [Compound A114] | – | – | – | – | – | – | – | – | – | – | – | – | – | – | – | – | pest or weed control at 250 g/ha ([1]; post-emergence, 360 h, Rate 250 g/ha, post-emergence, assessed visually 15 DAA, 100%=total damage, 0%=no damage, read-out: Post-emergence herbicidal activity (percentage phytotoxicity) ALOMY POST): 100%; pest or weed control at 250 g/ha ([1]; pre-emergence, 480 h, Rate 250 g/ha, pre-emergence, assessed visually 20 DAA, 100%=total damage, 0%=no damage, read-out: Pre-emergence herbicidal activity (percentage phytotoxicity) ALOMY PRE): 90%; pest or weed control at 250 g/ha ([2]; post-emergence, 360 h, Rate 250 g/ha, post-emergence, assessed visually 15 DAA, 100%=total damage, 0%=no damage, read-out: Post-emergence herbicidal activity (percentage phytotoxicity) AVEFA POST): 100%; pest or weed control at 250 g/ha ([2]; pre-emergence, 480 h, Rate 250 g/ha, pre-emergence, assessed visually 20 DAA, 100%=total damage, 0%=no damage, read-out: Pre-emergence herbicidal activity (percentage phytotoxicity) AVEFA PRE): 90%; pest or weed control at 250 g/ha ([3]; post-emergence, 360 h, Rate 250 g/ha, post-emergence, assessed visually 15 DAA, 100%=total damage, 0%=no damage, read-out: Post-emergence herbicidal activity (percentage phytotoxicity) ECHCG POST): 100%; pest or weed control at 250 g/ha ([3]; pre-emergence, 480 h, Rate 250 g/ha, pre-emergence, assessed visually 20 DAA, 100%=total damage, 0%=no damage, read-out: Pre-emergence herbicidal activity (percentage phytotoxicity) ECHCG PRE): 100%; pest or weed control at 250 g/ha ([4]; post-emergence, 360 h, Rate 250 g/ha, post-emergence, assessed visually 15 DAA, 100%=total damage, 0%=no damage, read-out: Post-emergence herbicidal activity (percentage phytotoxicity) LOLPE POST): 100%; pest or weed control at 250 g/ha ([4]; pre-emergence, 480 h, Rate 250 g/ha, pre-emergence, assessed visually 20 DAA, 100%=total damage, 0%=no damage, read-out: Pre-emergence herbicidal activity (percentage phytotoxicity) LOLPE PRE): 90%
C=CC(C)NC(=O)CC1CC(=O)C(c2c(C)cc(-c3ccc(F)cn3)cc2C)C1=O (stereo not drawn) [Compound B390] | – | – | – | – | – | – | – | – | – | – | – | – | – | – | – | – | pest or weed control at 250 g/ha [1, 13]: 100%; pest or weed control at 250 g/ha [1, 14]: 100%; pest or weed control at 250 g/ha [2, 15]: 100%; pest or weed control at 250 g/ha [2, 16]: 100%; pest or weed control at 250 g/ha [3, 17]: 90%; pest or weed control at 250 g/ha [3, 18]: 100%; pest or weed control at 250 g/ha [4, 19]: 90%; pest or weed control at 250 g/ha [4, 20]: 100%
C=C(C)CNC(=O)CC1CC(=O)C(c2c(C)cc(C)cc2C)C1=O (stereo not drawn) [Compound B44] | – | – | – | – | – | – | – | – | 90 | 90 | 90 | 60 | 90 | 90 | 90 | 100 | –
CCc1cc(-n2cc(Cl)cn2)cc(C)c1C1C(=O)CC(CC(=O)N(C)C(C)(C)C)C1=O (stereo not drawn) [Compound B239] | 90 | 100 | 100 | 90 | 100 | 100 | 100 | 100 | – | – | – | – | – | – | – | – | –
CCNC(=O)CC1CC(=O)C(c2c(C)cc(-c3ccc(C#N)cn3)cc2C)C1=O (stereo not drawn) [Compound B318] | 90 | 90 | 100 | 90 | 100 | 90 | 90 | 100 | – | – | – | – | – | – | – | – | –
Cc1cc(C)c(C2C(=O)CC(CC(=O)NCC#CCCl)C2=O)c(C)c1 (stereo not drawn) [Compound B36] | – | – | – | – | – | – | – | – | 30 | 50 | 40 | 0 | 20 | 0 | 50 | 80 | –
Cc1cc(C)c(C2C(=O)CC(CC(=O)NC3(C4CC4)CC3)C2=O)c(C)c1 (stereo not drawn) [Compound B78] | – | – | – | – | – | – | – | – | 80 | 80 | 80 | 40 | 90 | 90 | 80 | 90 | –
C#CCNC(=O)CC1CC(=O)C(c2c(C)cc(-c3ncc(F)cn3)cc2C)C1=O (stereo not drawn) [Compound B333] | 100 | 100 | 40 | 100 | 100 | 100 | 90 | 100 | – | – | – | – | – | – | – | – | –
Cc1cc(C)c(C2C(=O)CC(CC(=O)NC(C)(C)c3ccccc3)C2=O)c(C)c1 (stereo not drawn) [Compound B29] | – | – | – | – | – | – | – | – | 70 | 30 | 60 | 10 | 70 | 80 | 70 | 80 | –
C#CC(C)(C)NC(=O)CC1CC(=O)C(c2c(C)cc(-c3ccc(F)cn3)cc2C)C1=O (stereo not drawn) [Compound B388] | – | – | – | – | – | – | – | – | – | – | – | – | – | – | – | – | pest or weed control at 250 g/ha [1, 13]: 90%; pest or weed control at 250 g/ha [1, 14]: 90%; pest or weed control at 250 g/ha [2, 15]: 100%; pest or weed control at 250 g/ha [2, 16]: 90%; pest or weed control at 250 g/ha [3, 17]: 100%; pest or weed control at 250 g/ha [3, 18]: 100%; pest or weed control at 250 g/ha [4, 19]: 90%; pest or weed control at 250 g/ha [4, 20]: 90%
Cc1cc(OCC(F)(F)F)cc(C)c1C1C(=O)CC(CC(=O)N2CCOCC2)C1=O (stereo not drawn) [Compound B146] | – | – | – | – | – | – | – | – | 80 | 90 | 90 | 50 | 100 | 100 | 90 | 90 | –
